Results: paper PMC8147254, “Efflux at the Blood-Brain Barrier Reduces the Cerebral Exposure to Ochratoxin A, Ochratoxin α, Citrinin and Dihydrocitrinone” (Toxins, 2021)

Key:
[1] = tested on: PBCEC; assay type: cell-based, porcine; settings: pig
Procedure: In order to study the barrier integrity PBCEC were incubated with 1 µM OTA, OTα, CIT and DHCIT in the apical compartment (blood side) of Transwell® filter inserts for 48 h. The TEER values as well as the electrical capacitance (cCL) were monitored by cellular impedance spectroscopy (Figure 4A,B). As a negative control the permeability of […] was measured after 48 h. Sucrose is not transported by any cellular transport protein and represents a marker for an intact BBB. […]
6.1. Cellular impedance spectroscopy […]
6.2. […] permeability
As additional method to control the barrier tightness the permeability of radiolabeled […]
across the Transwell® inserts was measured. Since 14C sucrose is not transported or taken up by endothelial cells, the permeability of 14C sucrose is an appropriate parameter for barrier integrity.
After 48 h exposure to the mycotoxins 1 μ Ci (37 kBq) […] (Amersham, Buckinghamshire, UK) was applied to the apical compartment. Samples from the basolateral compartment were collected after 10, 20, 30, 40, 60 and 80 min, diluted in scintillation fluid and analyzed with a scintillation counter as previously described.

[2] = tested on: PBCEC; assay: Electrical capacitance cCL of the cell monolayer by impedance spectroscopy; assay type: cell-based, porcine; settings: 1 µM apical, referred to t = 0 h, n = 9 (negative control 99 ± 2%)
Procedure: In order to study the barrier integrity PBCEC were incubated with 1 µM OTA, OTα, CIT and DHCIT in the apical compartment (blood side) of Transwell® filter inserts for 48 h. The TEER values as well as the electrical capacitance (cCL) were monitored by cellular impedance spectroscopy (Figure 4A,B). As a negative control the permeability of […] was measured after 48 h. Sucrose is not transported by any cellular transport protein and represents a marker for an intact BBB.
Besides the TEER values, the electrical capacitance cCL of the cell monolayer was also monitored for 48 h (Figure 4B). As cellular bilayer membranes behave like an electrical capacitor, they influence the cellular impedance. Changes in cCL are markers for the integrity of the cells. Weak cytotoxic effects lead to a reduction of cCL, whereas strong cytotoxic effects result in an exponential increase in cCL to more than 150% due to the usually observed detachment of the cells from the surface.
For barrier integrity, TEER values were monitored using a cellZscope® cellular impedance spectrometer (nanoAnalytics, Münster, Germany). […]. The detailed protocols can be found in the Supplementary Materials.
After 48 h the medium was […]
The Transwell® filters were briefly […]
equipped with a 24 12‐well Transwell® filter setup. Each well was previously filled with 1650 μL serum‐free medium. Transendothelial electrical resistances (TEER) were analyzed using the cellZscope® device. Only Transwell® filters with TEER values of more than 600 Ω∙cm² and electrical […]
76 μ L of the medium in the apical […]
concentration of the mycotoxins was 1 μM at the beginning of the mycotoxin incubation. The final solvent concentration was 0.1% ACN. […]
and 48 h after toxin application. […]

[3] = 13 German volunteers; cited from earlier work
[4] = 50 German volunteers, dried blood spot; cited from earlier work
[5] = 289 µg OTA/kg body weight/48 h for up to 6 weeks; cited from earlier work

Row | SMILES | permeability pc (14C sucrose) after mycotoxin incubation [1] | electrical capacitance cCL after 48 h [2] [%] | mean OTA concentration in blood plasma [3] [ng/mL] | mean whole blood concentration of OTA [4] [ng/mL] | concentration in brain tissue [5] | mean total OTα level in blood plasma [3] [ng/mL]
1 | CC1=C2C(=CO[C@H](C)[C@H]2C)C(O)=C(C(=O)O)C1=O [CIT, Citrinin] | 0.50 ± 0.33 10^−6 cm/s | 97 ± 4 | – | – | – | –
2 | Cc1c(O)c(C(=O)O)c(O)c2c1[C@H](C)[C@@H](C)OC2=O [DHCIT, dihydrocitrinone] | 0.38 ± 0.17 10^−6 cm/s | 99 ± 4 | – | – | – | –
3 | C[C@@H]1Cc2c(Cl)cc(C(=O)N[C@@H](Cc3ccccc3)C(=O)O)c(O)c2C(=O)O1 [OTA, Ochratoxin A] | 0.81 ± 0.17 10^−6 cm/s | 96 ± 4 | 0.25 ± 0.03 | 0.21 ± 0.066 | up to 94 ± 16 ng/g | –
4 | C[C@@H]1Cc2c(Cl)cc(C(=O)O)c(O)c2C(=O)O1 [OTα, ochratoxin α] | 0.56 ± 0.24 10^−6 cm/s | 98 ± 2 | – | – | – | 2.99 ± 2.24
